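The compound was tested at five concentrations on cells cultured in 96-well plates, with a 48-hour exposure period. The concentration for 50% growth inhibition is given as GI50. TGI: concentration producing complete growth inhibition.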
Key:
Assay in all cases: growth of human tumour cells (NCI), 48 h
CCRF-CEM leukemia = test system: CCRF-CEM leukemia
HCC-2998 colon = test system: HCC-2998 colon
OVCAR-3 ovarian = test system: OVCAR-3 ovarian
OVCAR-4 ovarian = test system: OVCAR-4 ovarian
OVCAR-8 ovarian = test system: OVCAR-8 ovarian
SF-268 CNS = test system: SF-268 CNS
SNB-75 CNS = test system: SNB-75 CNS
U251 CNS = test system: U251 CNS
UACC-257 melanoma = test system: UACC-257 melanoma
UO-31 renal = test system: UO-31 renal

O=c1oc2ccc(I)cc2c(=O)n1-c1ccc(Br)cc1F
GI50 (CCRF-CEM leukemia): 1.93 µM
TGI (CCRF-CEM leukemia): 10.4 µM
GI50 (HCC-2998 colon): 2.98 µM
TGI (HCC-2998 colon): 9.5 µM
GI50 (OVCAR-3 ovarian): 0.511 µM
TGI (OVCAR-3 ovarian): 8.89 µM
GI50 (OVCAR-4 ovarian): 1.12 µM
TGI (OVCAR-4 ovarian): 16.5 µM
GI50 (OVCAR-8 ovarian): 0.821 µM
TGI (OVCAR-8 ovarian): 11.8 µM
GI50 (SF-268 CNS): 0.673 µM
TGI (SF-268 CNS): 8.52 µM
GI50 (SNB-75 CNS): 0.374 µM
TGI (SNB-75 CNS): 2.48 µM
GI50 (U251 CNS): 0.75 µM
TGI (U251 CNS): > 37.5 µM
GI50 (UACC-257 melanoma): 0.735 µM
TGI (UACC-257 melanoma): 5.02 µM
GI50 (UO-31 renal): 0.33 µM
TGI (UO-31 renal): 2.72 µM

Cc1ccc(C)c(N2C(=O)C(=O)C(c3nc4ccccc4s3)/C(=N/N)C2=O)c1 (stereo not given)
TGI (CCRF-CEM leukemia): > 100 µM
TGI (HCC-2998 colon): > 100 µM
TGI (OVCAR-3 ovarian): > 100 µM
TGI (OVCAR-4 ovarian): > 100 µM
TGI (OVCAR-8 ovarian): > 100 µM
TGI (SF-268 CNS): > 100 µM
TGI (SNB-75 CNS): > 100 µM
TGI (U251 CNS): > 100 µM
TGI (UACC-257 melanoma): > 74.5 µM
TGI (UO-31 renal): > 100 µM

CCc1nc(N)nc(N)c1-c1ccc(Cl)c([N+](=O)[O-])c1
TGI (CCRF-CEM leukemia): > 32.7 µM
TGI (HCC-2998 colon): > 100 µM
TGI (OVCAR-3 ovarian): > 100 µM
TGI (OVCAR-4 ovarian): > 100 µM
TGI (OVCAR-8 ovarian): > 100 µM
TGI (SF-268 CNS): > 100 µM
TGI (SNB-75 CNS): > 100 µM
TGI (U251 CNS): > 100 µM
TGI (UACC-257 melanoma): > 100 µM
TGI (UO-31 renal): > 100 µM

COc1ccc2c(c1)C(=O)c1c-2n(CCCN(C)C)c(=O)c2ccccc12
GI50 (CCRF-CEM leukemia): 0.077 µM
TGI (CCRF-CEM leukemia): 0.629 µM
GI50 (HCC-2998 colon): 0.187 µM
TGI (HCC-2998 colon): 0.955 µM
GI50 (OVCAR-3 ovarian): 0.551 µM
TGI (OVCAR-3 ovarian): 7.85 µM
GI50 (OVCAR-4 ovarian): 0.808 µM
TGI (OVCAR-4 ovarian): 6.87 µM
GI50 (OVCAR-8 ovarian): 0.186 µM
TGI (OVCAR-8 ovarian): 11.3 µM
GI50 (SF-268 CNS): 0.258 µM
TGI (SF-268 CNS): 2.84 µM
GI50 (SNB-75 CNS): 0.648 µM
TGI (SNB-75 CNS): 5.29 µM
GI50 (U251 CNS): 0.197 µM
TGI (U251 CNS): 3.68 µM
GI50 (UACC-257 melanoma): 0.929 µM
TGI (UACC-257 melanoma): 6.22 µM
GI50 (UO-31 renal): 0.167 µM
TGI (UO-31 renal): 0.811 µM

NC(=O)NNC(=O)CCn1[nH]c(=O)c(Cl)c(Cl)c1=O
TGI (CCRF-CEM leukemia): > 100 µM
TGI (HCC-2998 colon): > 100 µM
TGI (OVCAR-3 ovarian): > 100 µM
TGI (OVCAR-4 ovarian): > 100 µM
TGI (OVCAR-8 ovarian): > 100 µM
TGI (SF-268 CNS): > 100 µM
TGI (SNB-75 CNS): > 100 µM
TGI (U251 CNS): > 100 µM
TGI (UACC-257 melanoma): > 100 µM
TGI (UO-31 renal): > 100 µM

CCc1cccc(C(C)C)c1NC(=O)C(=O)C1C(=O)Nc2ccccc2S1=O (stereo not given)
TGI (CCRF-CEM leukemia): > 100 µM
TGI (HCC-2998 colon): > 100 µM
TGI (OVCAR-3 ovarian): > 100 µM
TGI (OVCAR-4 ovarian): > 100 µM
TGI (OVCAR-8 ovarian): > 100 µM
TGI (SF-268 CNS): > 100 µM
TGI (SNB-75 CNS): > 100 µM
TGI (U251 CNS): > 100 µM
TGI (UACC-257 melanoma): > 100 µM
TGI (UO-31 renal): > 100 µM

COc1ccc(/C=C\c2cc(OC)c(OC)c(OC)c2)cc1OCC(=O)Nc1nc2ccc(F)cc2s1
GI50 (CCRF-CEM leukemia): 3.7 µM
TGI (CCRF-CEM leukemia): > 100 µM
GI50 (HCC-2998 colon): > 100 µM
TGI (HCC-2998 colon): > 100 µM
GI50 (OVCAR-3 ovarian): 9.99 µM
TGI (OVCAR-3 ovarian): > 100 µM
GI50 (OVCAR-4 ovarian): 7.3 µM
TGI (OVCAR-4 ovarian): > 100 µM
GI50 (OVCAR-8 ovarian): 7.15 µM
TGI (OVCAR-8 ovarian): > 100 µM
GI50 (SF-268 CNS): 7.23 µM
TGI (SF-268 CNS): > 100 µM
GI50 (SNB-75 CNS): 4.39 µM
TGI (SNB-75 CNS): > 100 µM
GI50 (U251 CNS): 4.33 µM
TGI (U251 CNS): > 100 µM
GI50 (UACC-257 melanoma): 8.69 µM
TGI (UACC-257 melanoma): > 100 µM
GI50 (UO-31 renal): 2.56 µM
TGI (UO-31 renal): > 100 µM

O=c1c2ccccc2sc2c(NCCCNCCO)nc3ccccc3c12
GI50 (CCRF-CEM leukemia): 1.59 µM
TGI (CCRF-CEM leukemia): 3.57 µM
GI50 (HCC-2998 colon): 1.72 µM
TGI (HCC-2998 colon): 3.64 µM
GI50 (OVCAR-3 ovarian): 1.81 µM
TGI (OVCAR-3 ovarian): 3.65 µM
GI50 (OVCAR-4 ovarian): 2.17 µM
TGI (OVCAR-4 ovarian): 6.37 µM
GI50 (OVCAR-8 ovarian): 1.97 µM
TGI (OVCAR-8 ovarian): 4.46 µM
GI50 (SF-268 CNS): 1.69 µM
TGI (SF-268 CNS): 4.24 µM
GI50 (SNB-75 CNS): 1.64 µM
TGI (SNB-75 CNS): 4.32 µM
GI50 (U251 CNS): 1.76 µM
TGI (U251 CNS): 3.57 µM
GI50 (UACC-257 melanoma): 1.93 µM
TGI (UACC-257 melanoma): 3.6 µM
GI50 (UO-31 renal): 1.18 µM
TGI (UO-31 renal): 3 µM

CCOC(=O)C1=CCCC[C@H]1S(=O)(=O)Nc1ccc(F)cc1Cl
GI50 (CCRF-CEM leukemia): 21.4 µM
TGI (CCRF-CEM leukemia): 84.9 µM
GI50 (HCC-2998 colon): 31.2 µM
TGI (HCC-2998 colon): > 100 µM
GI50 (OVCAR-3 ovarian): 23.2 µM
TGI (OVCAR-3 ovarian): 77.3 µM
GI50 (OVCAR-4 ovarian): 31.2 µM
TGI (OVCAR-4 ovarian): > 100 µM
GI50 (OVCAR-8 ovarian): 27.9 µM
TGI (OVCAR-8 ovarian): > 100 µM
GI50 (SF-268 CNS): 24.6 µM
TGI (SF-268 CNS): > 100 µM
GI50 (SNB-75 CNS): 25.1 µM
TGI (SNB-75 CNS): > 100 µM
GI50 (U251 CNS): 24.7 µM
TGI (U251 CNS): > 100 µM
GI50 (UACC-257 melanoma): 35.8 µM
TGI (UACC-257 melanoma): > 100 µM
GI50 (UO-31 renal): 20.8 µM
TGI (UO-31 renal): > 100 µM

C=C(CCCCC)CN1CCCC1C(C)=O (stereo not given)
TGI (CCRF-CEM leukemia): 41.2 µM
TGI (HCC-2998 colon): > 100 µM
TGI (OVCAR-3 ovarian): > 100 µM
TGI (OVCAR-4 ovarian): 99.3 µM
TGI (OVCAR-8 ovarian): > 95.1 µM
TGI (SF-268 CNS): > 100 µM
TGI (SNB-75 CNS): 78.7 µM
TGI (U251 CNS): > 100 µM
TGI (UACC-257 melanoma): > 73.3 µM
TGI (UO-31 renal): > 100 µM

COc1cc(C2C(Cl)C(=O)N2NC(=O)Cc2ccccc2)cc(Br)c1O (stereo not given)
TGI (CCRF-CEM leukemia): > 100 µM
TGI (HCC-2998 colon): > 100 µM
TGI (OVCAR-3 ovarian): > 100 µM
TGI (OVCAR-4 ovarian): > 100 µM
TGI (OVCAR-8 ovarian): > 100 µM
TGI (SF-268 CNS): > 100 µM
TGI (SNB-75 CNS): > 100 µM
TGI (U251 CNS): > 100 µM
TGI (UACC-257 melanoma): > 100 µM
TGI (UO-31 renal): > 100 µM

COc1ccc(C2(Cl)c3ccccc3N(c3ccccc3)c3ccccc32)cc1
GI50 (CCRF-CEM leukemia): 1.99 µM
TGI (CCRF-CEM leukemia): 13.8 µM
GI50 (HCC-2998 colon): 0.357 µM
TGI (HCC-2998 colon): 1.53 µM
GI50 (OVCAR-3 ovarian): 0.307 µM
TGI (OVCAR-3 ovarian): 1.47 µM
GI50 (OVCAR-4 ovarian): 0.447 µM
TGI (OVCAR-4 ovarian): 2.81 µM
GI50 (OVCAR-8 ovarian): 0.203 µM
TGI (OVCAR-8 ovarian): 2.7 µM
GI50 (SF-268 CNS): 0.758 µM
TGI (SF-268 CNS): 2.88 µM
GI50 (SNB-75 CNS): 0.359 µM
TGI (SNB-75 CNS): 2.05 µM
GI50 (U251 CNS): 0.0505 µM
TGI (U251 CNS): 1.29 µM
GI50 (UACC-257 melanoma): 0.797 µM
TGI (UACC-257 melanoma): 3.67 µM
GI50 (UO-31 renal): 0.846 µM
TGI (UO-31 renal): 10.8 µM

CCC[C@H]1O[C@@H]2CC(=O)O[C@@H]2C2=C1C(=O)C=CC2=O
TGI (CCRF-CEM leukemia): > 47.9 µM
TGI (HCC-2998 colon): > 57 µM
TGI (OVCAR-3 ovarian): 28.5 µM
TGI (OVCAR-4 ovarian): 29.9 µM
TGI (OVCAR-8 ovarian): > 74.9 µM
TGI (SF-268 CNS): 18.7 µM
TGI (SNB-75 CNS): 36 µM
TGI (U251 CNS): > 53.7 µM
TGI (UACC-257 melanoma): 34.8 µM
TGI (UO-31 renal): 32.5 µM

COc1c/c(=C2\C=c3ccccc3=N2)[nH]/c1=C\c1[nH]c(C)cc1C
GI50 (CCRF-CEM leukemia): < 0.01 µM
TGI (CCRF-CEM leukemia): 6.64 µM
GI50 (HCC-2998 colon): 0.185 µM
TGI (HCC-2998 colon): 33.7 µM
GI50 (OVCAR-3 ovarian): < 0.0109 µM
TGI (OVCAR-3 ovarian): 0.202 µM
GI50 (OVCAR-4 ovarian): 0.0638 µM
TGI (OVCAR-4 ovarian): 4.83 µM
GI50 (OVCAR-8 ovarian): 0.214 µM
TGI (OVCAR-8 ovarian): > 21.8 µM
GI50 (SF-268 CNS): 0.0631 µM
TGI (SF-268 CNS): 37.7 µM
GI50 (SNB-75 CNS): 0.175 µM
TGI (SNB-75 CNS): 4.19 µM
GI50 (U251 CNS): < 0.0337 µM
TGI (U251 CNS): 6.28 µM
GI50 (UACC-257 melanoma): 0.628 µM
TGI (UACC-257 melanoma): 32.7 µM
GI50 (UO-31 renal): < 0.0106 µM
TGI (UO-31 renal): 0.32 µM
